Measured values reported in ChEMBL document CHEMBL5143594 (Bioorg Med Chem Lett, 2022).

Assays:
Parameters in all cases: species or system Severe acute respiratory syndrome coronavirus 2
[1] = Inhibition of SARS-CoV-2 main protease G15S mutant expressed in Escherichia coli BL21 (DE3) using DABCYL-KTSAVLQ1SGFRKM-E(EDANS)-NH2 as substrate preincubated for 10 mins followed by substrate addition and measured after 5 mins by FRET analysis
[2] = Inhibition of SARS-CoV-2 main protease T21I mutant expressed in Escherichia coli BL21 (DE3) using DABCYL-KTSAVLQ1SGFRKM-E(EDANS)-NH2 as substrate preincubated for 10 mins followed by substrate addition and measured after 5 mins by FRET analysis
[3] = Inhibition of SARS-CoV-2 main protease L89F mutant expressed in Escherichia coli BL21 (DE3) using DABCYL-KTSAVLQ1SGFRKM-E(EDANS)-NH2 as substrate preincubated for 10 mins followed by substrate addition and measured after 5 mins by FRET analysis
[4] = Inhibition of SARS-CoV-2 main protease K90R mutant expressed in Escherichia coli BL21 (DE3) using DABCYL-KTSAVLQ1SGFRKM-E(EDANS)-NH2 as substrate preincubated for 10 mins followed by substrate addition and measured after 5 mins by FRET analysis
[5] = Inhibition of SARS-CoV-2 main protease P132H mutant expressed in Escherichia coli BL21 (DE3) using DABCYL-KTSAVLQ1SGFRKM-E(EDANS)-NH2 as substrate preincubated for 10 mins followed by substrate addition and measured after 5 mins by FRET analysis
[6] = Inhibition of SARS-CoV-2 main protease L205V mutant expressed in Escherichia coli BL21 (DE3) using DABCYL-KTSAVLQ1SGFRKM-E(EDANS)-NH2 as substrate preincubated for 10 mins followed by substrate addition and measured after 5 mins by FRET analysis

CC(C)(C)[C@H](NC(=O)C(F)(F)F)C(=O)N1C[C@H]2[C@@H]([C@H]1C(=O)N[C@H](C#N)C[C@@H]1CCNC1=O)C2(C)C
IC50 [1]: 10.3 nM | IC50 [2]: 10.1 nM | IC50 [3]: 10.5 nM | IC50 [4]: 12.7 nM | IC50 [5]: 12.2 nM | IC50 [6]: 10.7 nM
